In publication PMC7316778 (Nature Communications, 2020):
Several values for one entry are separate records, joined by “and”; a condition that tells them apart may be missing. Equal values may be shown once. Read-outs that look alike come from different tables or passages of the source.

Legend:
Experiment in all cases: SelectScreen kinase assay
[1] = target: T1, EPHB2 (Homo sapiens, UniProt P29323); details: for Inhibition at 1 µM (%): EPHB2, ZLYTE, ATP Km app
T1 sequence (P29323 19-1055): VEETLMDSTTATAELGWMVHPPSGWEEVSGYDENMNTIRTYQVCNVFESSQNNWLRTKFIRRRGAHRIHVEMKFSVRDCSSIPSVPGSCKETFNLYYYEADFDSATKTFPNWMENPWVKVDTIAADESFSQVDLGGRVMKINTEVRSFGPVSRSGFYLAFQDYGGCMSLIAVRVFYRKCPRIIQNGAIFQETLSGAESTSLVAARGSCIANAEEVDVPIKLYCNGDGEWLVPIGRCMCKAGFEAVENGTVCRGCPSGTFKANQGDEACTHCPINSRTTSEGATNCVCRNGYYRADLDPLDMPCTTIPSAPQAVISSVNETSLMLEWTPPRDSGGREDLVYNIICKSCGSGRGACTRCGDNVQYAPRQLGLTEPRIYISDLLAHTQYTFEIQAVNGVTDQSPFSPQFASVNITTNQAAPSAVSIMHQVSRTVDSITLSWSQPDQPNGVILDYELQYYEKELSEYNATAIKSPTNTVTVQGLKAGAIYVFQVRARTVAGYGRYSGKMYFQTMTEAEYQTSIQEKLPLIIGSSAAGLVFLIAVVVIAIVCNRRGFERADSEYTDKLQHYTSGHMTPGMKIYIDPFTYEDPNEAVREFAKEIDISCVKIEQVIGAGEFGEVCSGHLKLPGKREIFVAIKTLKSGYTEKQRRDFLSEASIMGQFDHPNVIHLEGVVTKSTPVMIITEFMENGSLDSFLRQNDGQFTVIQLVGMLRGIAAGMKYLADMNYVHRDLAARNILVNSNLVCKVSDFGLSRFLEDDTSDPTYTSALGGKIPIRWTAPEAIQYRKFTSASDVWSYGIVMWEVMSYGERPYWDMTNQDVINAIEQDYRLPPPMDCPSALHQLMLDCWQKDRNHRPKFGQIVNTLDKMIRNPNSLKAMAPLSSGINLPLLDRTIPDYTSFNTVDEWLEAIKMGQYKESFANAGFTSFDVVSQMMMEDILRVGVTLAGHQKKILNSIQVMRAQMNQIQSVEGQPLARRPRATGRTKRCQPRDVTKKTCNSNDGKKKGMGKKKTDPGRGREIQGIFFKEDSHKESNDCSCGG
Description: (§1) Selectivity profiling assays were performed by the Invitrogen SelectScreen™ Services. […] The concentration of ATP was selected to be equal to the KM, unless indicated otherwise.

[2] = target: AKT2 (PKB beta) (Homo sapiens, UniProt P31751); details: for Inhibition at 1 µM (%): AKT2 (PKB beta), ZLYTE, ATP Km app
Description: as §1

[3] = target: MKNK2 (MNK2) (Homo sapiens, UniProt Q9HBH9)
Description: as §1

[4] = target: RPS6KA6 (RSK4) (Homo sapiens, UniProt Q9UK32)
Description: as §1

[5] = target: PI4K2A (PI4K2 alpha) (Homo sapiens, UniProt Q9BTU6)
Description: as §1

[6] = target: FYN A (Homo sapiens, UniProt P06241)
Description: as §1

[7] = target: RET (Homo sapiens, UniProt P07949)
Description: as §1

[8] = target: ABL2 (Arg) (Homo sapiens, UniProt P42684); details: for Inhibition at 1 µM (%): ABL2 (Arg), ZLYTE, ATP Km app
Description: as §1

[9] = target: T2, BMPR2 (Homo sapiens, UniProt Q13873)
T2 sequence (Q13873 27-1038): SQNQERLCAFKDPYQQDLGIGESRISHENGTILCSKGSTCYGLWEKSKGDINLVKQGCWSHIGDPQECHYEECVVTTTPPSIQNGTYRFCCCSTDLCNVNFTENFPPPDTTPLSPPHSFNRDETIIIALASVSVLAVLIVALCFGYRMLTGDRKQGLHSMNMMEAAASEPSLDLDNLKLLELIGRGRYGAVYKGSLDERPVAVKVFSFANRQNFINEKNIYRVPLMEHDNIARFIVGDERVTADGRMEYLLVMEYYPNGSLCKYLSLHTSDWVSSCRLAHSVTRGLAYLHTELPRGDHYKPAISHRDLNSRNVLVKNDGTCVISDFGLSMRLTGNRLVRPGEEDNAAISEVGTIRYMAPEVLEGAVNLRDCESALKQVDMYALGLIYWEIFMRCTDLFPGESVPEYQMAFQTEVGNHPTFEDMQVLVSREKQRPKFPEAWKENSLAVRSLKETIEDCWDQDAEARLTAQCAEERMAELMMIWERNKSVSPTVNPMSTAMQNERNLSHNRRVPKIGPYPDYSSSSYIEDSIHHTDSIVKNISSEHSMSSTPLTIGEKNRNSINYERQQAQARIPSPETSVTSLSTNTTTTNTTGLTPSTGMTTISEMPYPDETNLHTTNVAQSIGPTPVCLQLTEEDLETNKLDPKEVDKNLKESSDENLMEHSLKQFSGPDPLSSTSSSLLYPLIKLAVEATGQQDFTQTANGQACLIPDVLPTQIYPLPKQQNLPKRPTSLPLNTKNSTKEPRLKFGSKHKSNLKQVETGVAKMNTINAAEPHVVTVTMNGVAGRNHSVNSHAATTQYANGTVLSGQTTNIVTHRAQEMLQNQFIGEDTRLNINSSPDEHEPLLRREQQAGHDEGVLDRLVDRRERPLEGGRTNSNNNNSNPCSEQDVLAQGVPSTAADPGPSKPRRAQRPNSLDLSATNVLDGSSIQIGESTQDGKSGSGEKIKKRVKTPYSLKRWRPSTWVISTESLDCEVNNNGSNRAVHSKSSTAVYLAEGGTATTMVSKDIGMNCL
Description: as §1

[10] = 1 h, 1 μM WEL028, 1 h preincubation

AKT2 (PKB beta), sequence (P31751 whole entry): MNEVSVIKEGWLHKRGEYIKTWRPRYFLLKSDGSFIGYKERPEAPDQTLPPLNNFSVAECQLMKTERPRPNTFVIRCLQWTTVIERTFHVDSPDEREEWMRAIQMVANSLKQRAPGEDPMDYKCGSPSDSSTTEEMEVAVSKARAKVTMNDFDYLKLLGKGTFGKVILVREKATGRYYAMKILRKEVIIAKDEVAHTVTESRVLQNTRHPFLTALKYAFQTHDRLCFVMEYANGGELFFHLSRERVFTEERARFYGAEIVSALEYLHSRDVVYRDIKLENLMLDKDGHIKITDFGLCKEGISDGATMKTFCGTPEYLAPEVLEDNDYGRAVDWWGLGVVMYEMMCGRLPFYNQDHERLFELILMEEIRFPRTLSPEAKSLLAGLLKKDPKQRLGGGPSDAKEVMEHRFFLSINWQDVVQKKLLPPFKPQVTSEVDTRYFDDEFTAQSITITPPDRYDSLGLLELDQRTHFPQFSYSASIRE
ABL2 (Arg), sequence (P42684 whole entry): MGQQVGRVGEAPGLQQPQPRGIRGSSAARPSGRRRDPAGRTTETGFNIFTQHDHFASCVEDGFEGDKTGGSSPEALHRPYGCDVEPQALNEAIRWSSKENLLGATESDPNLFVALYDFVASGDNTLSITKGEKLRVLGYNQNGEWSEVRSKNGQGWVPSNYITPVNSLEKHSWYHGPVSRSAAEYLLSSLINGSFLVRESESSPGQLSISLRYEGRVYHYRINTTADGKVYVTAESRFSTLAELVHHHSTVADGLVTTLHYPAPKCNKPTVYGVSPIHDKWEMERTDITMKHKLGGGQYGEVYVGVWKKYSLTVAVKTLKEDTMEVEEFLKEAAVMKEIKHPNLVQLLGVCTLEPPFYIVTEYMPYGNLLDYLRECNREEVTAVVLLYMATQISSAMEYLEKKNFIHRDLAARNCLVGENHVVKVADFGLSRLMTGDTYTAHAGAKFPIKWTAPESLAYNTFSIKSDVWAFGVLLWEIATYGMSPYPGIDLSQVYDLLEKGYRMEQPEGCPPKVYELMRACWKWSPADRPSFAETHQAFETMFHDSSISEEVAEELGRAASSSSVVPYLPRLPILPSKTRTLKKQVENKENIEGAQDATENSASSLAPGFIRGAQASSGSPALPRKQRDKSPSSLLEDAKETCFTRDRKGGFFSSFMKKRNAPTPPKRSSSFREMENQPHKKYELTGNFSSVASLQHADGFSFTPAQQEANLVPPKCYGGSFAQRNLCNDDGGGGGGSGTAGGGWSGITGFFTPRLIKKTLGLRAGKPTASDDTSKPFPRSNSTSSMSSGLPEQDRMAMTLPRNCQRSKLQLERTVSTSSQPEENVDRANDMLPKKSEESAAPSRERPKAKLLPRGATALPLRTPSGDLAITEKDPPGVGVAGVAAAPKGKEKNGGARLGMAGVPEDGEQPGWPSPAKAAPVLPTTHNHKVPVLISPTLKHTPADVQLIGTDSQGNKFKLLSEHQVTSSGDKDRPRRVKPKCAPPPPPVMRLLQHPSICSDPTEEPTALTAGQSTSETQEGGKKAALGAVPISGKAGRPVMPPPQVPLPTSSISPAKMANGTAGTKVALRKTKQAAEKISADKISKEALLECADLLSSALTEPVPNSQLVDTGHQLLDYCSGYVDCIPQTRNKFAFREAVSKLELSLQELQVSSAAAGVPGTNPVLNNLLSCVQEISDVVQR
FYN A, sequence (P06241 whole entry): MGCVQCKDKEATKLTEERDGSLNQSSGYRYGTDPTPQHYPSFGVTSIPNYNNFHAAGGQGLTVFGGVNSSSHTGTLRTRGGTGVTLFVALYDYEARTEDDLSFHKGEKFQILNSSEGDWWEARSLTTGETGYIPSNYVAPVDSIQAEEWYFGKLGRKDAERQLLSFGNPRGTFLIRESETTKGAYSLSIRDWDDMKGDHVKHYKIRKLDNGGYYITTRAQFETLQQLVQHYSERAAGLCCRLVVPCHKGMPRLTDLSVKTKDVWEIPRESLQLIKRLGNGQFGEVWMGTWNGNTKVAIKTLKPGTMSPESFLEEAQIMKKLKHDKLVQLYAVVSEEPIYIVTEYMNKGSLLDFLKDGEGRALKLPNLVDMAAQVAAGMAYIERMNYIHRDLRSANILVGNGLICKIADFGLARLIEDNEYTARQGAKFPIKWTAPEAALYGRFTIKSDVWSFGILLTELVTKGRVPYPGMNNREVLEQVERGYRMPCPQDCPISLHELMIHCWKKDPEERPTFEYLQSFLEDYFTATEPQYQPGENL
PI4K2A (PI4K2 alpha), sequence (Q9BTU6 whole entry): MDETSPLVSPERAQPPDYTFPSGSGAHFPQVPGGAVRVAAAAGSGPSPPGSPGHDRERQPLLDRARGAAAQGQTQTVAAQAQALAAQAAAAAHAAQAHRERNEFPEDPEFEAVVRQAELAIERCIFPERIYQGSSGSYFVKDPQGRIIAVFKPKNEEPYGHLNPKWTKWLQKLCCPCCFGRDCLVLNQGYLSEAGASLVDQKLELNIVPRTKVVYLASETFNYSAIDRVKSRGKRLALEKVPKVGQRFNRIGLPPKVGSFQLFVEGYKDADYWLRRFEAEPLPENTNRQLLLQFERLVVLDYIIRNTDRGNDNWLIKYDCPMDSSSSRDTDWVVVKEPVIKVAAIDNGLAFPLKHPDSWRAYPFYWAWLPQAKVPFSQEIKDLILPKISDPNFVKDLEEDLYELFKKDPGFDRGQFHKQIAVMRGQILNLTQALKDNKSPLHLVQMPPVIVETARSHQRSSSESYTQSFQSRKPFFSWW
RPS6KA6 (RSK4), sequence (Q9UK32 whole entry): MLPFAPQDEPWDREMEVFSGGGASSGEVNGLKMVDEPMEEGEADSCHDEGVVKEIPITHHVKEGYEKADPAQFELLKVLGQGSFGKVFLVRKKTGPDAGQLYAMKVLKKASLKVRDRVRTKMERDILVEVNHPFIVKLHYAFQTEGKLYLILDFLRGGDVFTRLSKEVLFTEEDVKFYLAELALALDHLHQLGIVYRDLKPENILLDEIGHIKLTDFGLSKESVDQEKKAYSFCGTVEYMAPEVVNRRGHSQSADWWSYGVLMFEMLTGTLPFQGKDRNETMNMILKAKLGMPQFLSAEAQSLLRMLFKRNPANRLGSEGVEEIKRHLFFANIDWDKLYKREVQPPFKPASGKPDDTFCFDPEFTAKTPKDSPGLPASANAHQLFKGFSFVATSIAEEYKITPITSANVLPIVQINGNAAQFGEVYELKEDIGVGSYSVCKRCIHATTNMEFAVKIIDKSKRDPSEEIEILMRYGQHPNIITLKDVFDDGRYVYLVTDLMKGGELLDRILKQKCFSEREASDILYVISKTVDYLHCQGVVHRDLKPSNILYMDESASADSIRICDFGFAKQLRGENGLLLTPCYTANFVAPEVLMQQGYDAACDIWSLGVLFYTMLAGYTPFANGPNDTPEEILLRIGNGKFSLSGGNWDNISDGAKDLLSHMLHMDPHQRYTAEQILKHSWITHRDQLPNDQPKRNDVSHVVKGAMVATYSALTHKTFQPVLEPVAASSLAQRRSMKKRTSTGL
MKNK2 (MNK2), sequence (Q9HBH9 whole entry, species assumed): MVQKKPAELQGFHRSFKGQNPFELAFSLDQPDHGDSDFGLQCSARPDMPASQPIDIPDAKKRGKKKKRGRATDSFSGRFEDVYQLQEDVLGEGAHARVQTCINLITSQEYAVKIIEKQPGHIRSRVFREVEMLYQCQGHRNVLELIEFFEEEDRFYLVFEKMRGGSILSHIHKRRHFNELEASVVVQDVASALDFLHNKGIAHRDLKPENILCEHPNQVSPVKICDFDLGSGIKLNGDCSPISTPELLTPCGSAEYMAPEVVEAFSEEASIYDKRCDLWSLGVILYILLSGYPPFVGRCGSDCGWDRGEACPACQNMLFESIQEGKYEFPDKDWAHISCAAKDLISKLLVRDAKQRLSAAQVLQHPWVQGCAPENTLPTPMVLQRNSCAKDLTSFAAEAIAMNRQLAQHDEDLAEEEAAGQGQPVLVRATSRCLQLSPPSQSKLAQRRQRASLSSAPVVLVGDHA
RET, sequence (P07949 29-1114): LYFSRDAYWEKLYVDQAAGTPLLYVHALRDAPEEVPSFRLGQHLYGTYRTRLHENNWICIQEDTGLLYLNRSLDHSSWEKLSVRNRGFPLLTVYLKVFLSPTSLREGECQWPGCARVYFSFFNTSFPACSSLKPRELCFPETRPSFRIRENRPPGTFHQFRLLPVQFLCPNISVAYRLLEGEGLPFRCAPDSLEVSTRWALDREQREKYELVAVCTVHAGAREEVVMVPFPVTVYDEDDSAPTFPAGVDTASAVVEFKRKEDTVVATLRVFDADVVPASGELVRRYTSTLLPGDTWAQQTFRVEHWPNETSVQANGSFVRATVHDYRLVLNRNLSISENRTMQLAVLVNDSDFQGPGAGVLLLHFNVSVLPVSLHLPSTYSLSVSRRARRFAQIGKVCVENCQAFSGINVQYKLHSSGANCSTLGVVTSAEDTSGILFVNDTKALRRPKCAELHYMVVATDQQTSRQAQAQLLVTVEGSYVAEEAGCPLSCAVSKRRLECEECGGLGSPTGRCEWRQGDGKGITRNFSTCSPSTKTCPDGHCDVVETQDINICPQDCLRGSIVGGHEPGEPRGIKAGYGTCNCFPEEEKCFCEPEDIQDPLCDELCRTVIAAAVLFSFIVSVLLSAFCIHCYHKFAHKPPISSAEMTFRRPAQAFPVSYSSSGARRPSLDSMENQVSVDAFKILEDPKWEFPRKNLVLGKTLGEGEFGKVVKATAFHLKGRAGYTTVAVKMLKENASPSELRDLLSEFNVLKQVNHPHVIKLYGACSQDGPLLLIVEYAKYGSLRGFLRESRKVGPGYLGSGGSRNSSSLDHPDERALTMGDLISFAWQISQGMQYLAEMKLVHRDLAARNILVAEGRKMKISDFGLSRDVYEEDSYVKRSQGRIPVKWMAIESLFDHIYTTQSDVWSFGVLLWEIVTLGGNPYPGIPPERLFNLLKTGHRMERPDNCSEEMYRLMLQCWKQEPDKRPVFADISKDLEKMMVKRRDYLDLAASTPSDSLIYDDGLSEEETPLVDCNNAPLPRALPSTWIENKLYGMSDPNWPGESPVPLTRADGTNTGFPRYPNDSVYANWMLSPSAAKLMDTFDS

For `C#CCOc1ccc(Nc2ncc(Cl)c(Nc3ccccc3NC(=O)C=C)n2)c(OC)c1` [Compound 6], the “Inhibition (%)” value ([1]; 1 μM WEL028, 1 h preincubation) was 4%, the “Inhibition at 1 µM (%)” value [1] was 2% and the “Inhibition at 1 µM (%)” value ([1]; listed as WEL028, 1 µM) was 5%. For the same compound, the inhibition at 1 µM [2, 10] was -1%, the “Inhibition at 1 µM (%)” value [2] was -2% and the “Inhibition at 1 µM (%)” value ([2]; listed as WEL028, 1 µM) was 0%. For the same compound, the IC50 [3] was 100 nM, the inhibition at 1 µM [3, 10] was 93% and the inhibition at 10 µM ([3]; 1 h, log[inhibitor] (M) -5.00, LanthaScreen Binding) was 83%. For the same compound, the inhibition at 3.311 µM ([3]; 1 h, log[inhibitor] (M) -5.48, LanthaScreen Binding) was 97%, the inhibition at 1.122 µM ([3]; 1 h, log[inhibitor] (M) -5.95, LanthaScreen Binding) was 94% and the inhibition at 0.3715 µM ([3]; 1 h, log[inhibitor] (M) -6.43, LanthaScreen Binding) was 82%. The inhibition at 0.123 µM ([3]; 1 h, log[inhibitor] (M) -6.91, LanthaScreen Binding) was 54%, the inhibition at 0.0138 µM ([3]; 1 h, log[inhibitor] (M) -7.86, LanthaScreen Binding) was 13% and the inhibition at 0.0004898 µM ([3]; 1 h, log[inhibitor] (M) -9.31, LanthaScreen Binding) was 4%. For the same compound, the Apparent fold selectivity ([3]; IC50 on that kinase divided by IC50 on FES^S700C) was 23 fold, the “Inhibition at 1 µM (%)” value ([3]; MKNK2 (MNK2), 1 µM, LanthaScreen Binding, listed as WEL028, 1 µM) was 96% and the inhibition at 1 µM ([3]; read-out: Inhibition at 1 µM (%), MKNK2 (MNK2), 1 µM, LanthaScreen Binding) was 89%. The “Inhibition (%)” value ([4]; 1 μM WEL028, 1 h preincubation) was 5%, the “Inhibition at 1 µM (%)” value ([4]; 1 µM, ZLYTE, ATP Km app, listed as WEL028, 1 µM) was 1% and 9% and the inhibition at 1 µM [5, 10] was 0%. For the same compound, the “Inhibition at 1 µM (%)” value ([5]; PI4K2A (PI4K2 alpha), 1 µM, Adapta, ATP 10, listed as WEL028, 1 µM) was 2% and -2%, the inhibition at 1 µM [6, 10] was 3% and the “Inhibition at 1 µM (%)” value ([6]; FYN A, 1 µM, LanthaScreen Binding, listed as WEL028, 1 µM) was -1% and 7%. For the same compound, the inhibition at 1 µM [7, 10] was 7%, the inhibition at 1 µM ([7]; read-out: Inhibition at 1 µM (%), 1 µM, ZLYTE, ATP Km app) was 6% and the inhibition at 1 µM [8, 10] was -5%. The “Inhibition at 1 µM (%)” value [8] was -2%, the “Inhibition at 1 µM (%)” value ([8]; listed as WEL028, 1 µM) was -9% and the “Inhibition (%)” value ([9]; 1 μM WEL028, 1 h preincubation) was 3%. The “Inhibition at 1 µM (%)” value ([9]; BMPR2, 1 µM, LanthaScreen Binding, listed as WEL028, 1 µM) was 2% and the inhibition at 1 µM ([9]; read-out: Inhibition at 1 µM (%), BMPR2, 1 µM, LanthaScreen Binding) was 4%.
